Consider three compounds from patent US20040242650A1, “Extended dosing regimen” (priority 2003, published 2004).

The subject of test [1] is HT-29 colon subcutaneous flank xenografts. As to the kind of experiment: HT-29 flank xenograft model. It counts as in vivo, nude mice. As to conditions: q.d x5; for Tumor Volume Day 38: mean ± SEM; for % ILS: median, time to 1 cc vs vehicle; for % T/C Day 38: treated vs vehicle. Here is the method:
(§1) Efficacy of N-[2-[(4-hydroxyphenyl)amino]-3-pyridyl]-4-methoxybenzenesulfonamide was tested in Calu-6 NSCL, MDA-MB-468 breast and HT-29 colon carcinoma xenografts grown in nude mice. The objectives were determination of the efficacy of N-[2-[(4-hydroxyphenyl)amino]-3-pyridyl]-4-methoxybenzenesulfonamide as a single agent and in combination with cisplatin in the Calu-6 NSCL flank xenograft model; determination the efficacy of N-[2-[(4-hydroxyphenyl)amino]-3-pyridyl]-4-methoxybenzenesulfonamide as a single agent and in combination with docetaxel in the MDA-MB 468 breast flank xenograft model; determination of the efficacy of N-[2-[(4-hydroxyphenyl)amino]-3-pyridyl]-4-methoxybenzenesulfonamide as a single agent and in combination with 5-FU in the HT-29 colon flank xenograft model; and comparison the efficacy of N-[2-[(4-hydroxyphenyl)amino]-3-pyridyl]-4-methoxybenzenesulfonamide administered on 2 different schedules (q.d. vs b.i.d.) in the Calu-6 and HT-29 xenogaft model.
(§2) Following inoculation of tumor cells, tumors were passaged three times in mice before using the fragments to generate single cell suspensions. Multiple animals were used as donors. Single cell suspensions were generated by homogenizing the minced tumor tissue in RPMI 1640 media. Cell suspensions were washed three times to remove debris and other foreign materials. Viable cells were counted by trypan blue exclusion technique using a hemocytometer. Mice were injected subcutaneously with 0.5 ml of the cell suspension containing 1×10^6 cells.
Tumor cells derived from serially passaged tumor fragments were inoculated s.c. in female nude mice on day 0. On day 10, mice bearing established tumors were size matched at ˜236 mm^3 and placed into the following groups:
1. N-[2-[(4-hydroxyphenyl)amino]-3-pyridyl]-4-methoxybenzenesulfonamide—100, and 75 mg/kg/day (p.o., q.d., 5 days on, 5 days off ×2)
2. N-[2-[(4-hydroxyphenyl)amino]-3-pyridyl]-4-methoxybenzenesulfonamide—50 and 0 mg/kg/day (p.o., q.d. ×21 or p.o., b.i.d. ×21)
Combination Therapy—100/30, 75/30, mg/kg/day (p.o., q.d., 5 days on, 5 days off ×2/ip, qd ×1), 50/10 mg/kg/day (p.o., q.d., ×21/ip, qd ×1).

In test [2] the test system is Calu-6 lung subcutaneous flank xenografts. Nature of the test: Calu-6 flank xenograft model. It counts as in vivo, male nude mice. The conditions noted are these: q.d x1; for Tumor Volume Day 38: mean ± SEM; for % ILS: median, time to 1 cc vs vehicle; for % T/C Day 38: treated vs vehicle. The procedure:
as §1, §2
Tumor cells were inoculated s.c. into male nude mice on day 0. On day 10, mice bearing established tumors were size matched at ˜233 mm^3 and placed into the following groups:
(§3) N-[2-[(4-hydroxyphenyl)amino]-3-pyridyl]-4-methoxybenzenesulfonamide—100, and 75 mg/kg/day (p.o., q.d., 5 days on, 5 days off ×2)
N-[2-[(4-hydroxyphenyl)amino]-3-pyridyl]-4-methoxybenzenesulfonamide—50 and 0 mg/kg/day (p.o., q.d. ×21 or p.o., b.i.d. ×21)
Cisplaitn—20, 10, 8 and 0 mg/kg/day (ip, qd ×1)
Combination Therapy—100/10, 75/10, 100/8 mg/kg/day (p.o., q.d., 5 days on, 5 days off ×2/ip, qd ×1), 50/10 mg/kg/day (p.o., q.d., ×21/ ip, qd ×1)

The test system of test [3] is MDA-MB-468 breast subcutaneous flank xenografts. As to the kind of experiment: MDA-MB-468 breast flank xenograft model. It counts as in vivo, female nude mice. The conditions noted are these: q.d x1; for Tumor Volume Day 38: mean ± SEM; for % ILS: median, time to 1 cc vs vehicle; for % T/C Day 38: treated vs vehicle. The procedure: as §1, §2
Efficacy of N-[2-[(4-hydroxyphenyl)amino]-3-pyridyl]-4-methoxybenzenesulfonamide in the MDA-MB-468 Breast Flank Xenograft Model. Tumor cells derived from serially passaged tumor fragments were inoculated s.c. in female nude mice on day 0. On day 10, mice bearing established tumors were size matched at ˜231 mm^3 and placed into the following groups:
as §3
N-[2-[(4-hydroxyphenyl)amino]-3-pyridyl]-4-methoxybenzenesulfonamide—50 and 0 mg/kg/day (p.o., q.d. ×21)
Docetaxel—40, 33.3, 16.7 and 0 mg/kg/day (i.v., qd ×1)

Marks after values point to notes of the source that are not given here.

Regarding `O=c1[nH]cc(F)c(=O)[nH]1` [5-FU, 5-fluorouracil, reference compound], the “Tumor Volume Day 38” value amounted to 1413 ± 80 mm^3 in test [1] (20 mg/kg/day i.p.), 525 ± 35 mm^3 in test [1] (30 mg/kg/day i.p.) and 973 ± 45 mm^3 in test [1] (40 mg/kg/day i.p.). Further, the “% ILS” value in test [1] (20 mg/kg/day i.p.) is reported as 25*** %; in test [1] (30 mg/kg/day i.p.) it was 75*** %; in test [1] (40 mg/kg/day i.p.), 50*** %. Further, the “% T/C Day 38” value was 59*** % in test [1] (20 mg/kg/day i.p.), 22*** % in test [1] (30 mg/kg/day i.p.) and 41*** % in test [1] (40 mg/kg/day i.p.).
In the case of `N.N.[Cl][Pt][Cl]` [Cisplatin, cisplatin, reference compound], the “Tumor Volume Day 38” value in test [2] (8 mg/kg/day i.p.) was 1649 ± 67 mm^3; in test [2] (10 mg/kg/day i.p.) it was 914 ± 49 mm^3; in test [2] (20 mg/kg/day i.p.), 1472 ± 75 mm^3. In addition, the “% ILS” value in test [2] (8 mg/kg/day i.p.) is recorded as 29*** %; in test [2] (10 mg/kg/day i.p.), 71*** %; in test [2] (20 mg/kg/day i.p.), 58*** %. Further, the “% T/C Day 38” value in test [2] (8 mg/kg/day i.p.) is 63*** %; in test [2] (10 mg/kg/day i.p.) it was 35*** %; in test [2] (20 mg/kg/day i.p.), 56*** %.
As to `CC(=O)O[C@@]12CO[C@@H]1C[C@H](O)[C@@]1(C)C(=O)[C@H](O)C3=C(C)[C@@H](OC(=O)[C@H](O)[C@@H](NC(=O)OC(C)(C)C)c4ccccc4)C[C@@](O)([C@@H](OC(=O)c4ccccc4)[C@H]21)C3(C)C` [Docetaxel, docetaxel, reference compound], in test [3] (16.7 mg/kg/day i.v.), the “Tumor Volume Day 38” value worked out at 1909 ± 101 mm^3, the “% ILS” value is recorded as 26*** % and the “% T/C Day 38” value is on record as 68*** %. In test [3] (33.3 mg/kg/day i.v.), the “Tumor Volume Day 38” value was 551 ± 31 mm^3, the “% ILS” value is on record as 67*** % and the “% T/C Day 38” value is reported as 19*** %. Moreover, in test [3] (40 mg/kg/day i.v.), the “Tumor Volume Day 38” value is reported as 1008 ± 58 mm^3, the “% ILS” value is 52*** % and the “% T/C Day 38” value is 36*** %.
